Data reported in PubChem BioAssay AID330 (DTP/NCI, 2004).
Several values for one entry are separate records, joined by “and”; a condition that tells them apart may be missing. Equal entries are not always repeated. Toxic doses and inconclusive results are not listed.

System: P388 leukemia ip, CD2F1 mice, survival T/C
Assay: NCI In Vivo Anticancer Drug Screen. Data for tumor model P388 Leukemia (intraperitoneal) in CD2F1 (CDF1) mice
Details: endpoint: median survival time, higher = longer survival
Procedure, shortened: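 Mice carrying the transplanted tumor received test compound or vehicle. Survival was recorded in each group, and the value is the treated-group measurement divided by that of the vehicle-treated control group.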

For `COc1cc(NCc2ccc3nc(N)nc(N)c3c2C)cc(OC)c1OC`, the T/C (dose: 1.56 mg/kg/injection, schedule: Q01DX009 (ip), vehicle: Klucel (hydroxypropylcellulose) (HPC)) was 112 % of control, the T/C (dose: 1.56 mg/kg/injection, schedule: Q01DX009 (ip), vehicle: clinical formulation) was 111 % of control and the T/C (dose: 1.88 mg/kg/injection, schedule: Q01DX005 (ip), vehicle: Klucel (hydroxypropylcellulose) (HPC)) was 121 % of control. The T/C (dose: 1.88 mg/kg/injection, schedule: Q01DX005 (ip), vehicle: clinical formulation) was 102 % of control, the T/C (dose: 1.88 mg/kg/injection, schedule: Q01DX005 (iv), vehicle: clinical formulation) was 102 % of control and the T/C (dose: 2.1 mg/kg/injection, schedule: Q01DX009 (ip), vehicle: water) was 116 % of control. The T/C (dose: 2.5 mg/kg/injection, schedule: Q01DX009 (ip), vehicle: sodium bicarbonate) was 124 % of control, the T/C (dose: 2.52 mg/kg/injection, schedule: Q01DX005 (iv), vehicle: water) was 103 % of control and the T/C (dose: 3.12 mg/kg/injection, schedule: Q01DX009 (ip), vehicle: Klucel (hydroxypropylcellulose) (HPC)) was 124 % of control. The T/C (dose: 3.12 mg/kg/injection, schedule: Q01DX009 (ip), vehicle: clinical formulation) was 109 % of control, the T/C (dose: 3.75 mg/kg/injection, schedule: Q01DX005 (ip), vehicle: Klucel (hydroxypropylcellulose) (HPC)) was 124 % of control and the T/C (dose: 3.75 mg/kg/injection, schedule: Q01DX005 (ip), vehicle: clinical formulation) was 100 % of control. The T/C (dose: 3.75 mg/kg/injection, schedule: Q01DX005 (iv), vehicle: clinical formulation) was 103 % of control, the T/C (dose: 4.19 mg/kg/injection, schedule: Q01DX009 (ip), vehicle: water) was 120 % of control and the T/C (dose: 5.0 mg/kg/injection, schedule: Q01DX009 (ip), vehicle: sodium bicarbonate) was 154 % of control. For the same molecule, the T/C (dose: 5.03 mg/kg/injection, schedule: Q01DX005 (iv), vehicle: water) was 101 % of control, the T/C (dose: 6.25 mg/kg/injection, schedule: Q01DX009 (ip), vehicle: clinical formulation) was 109 % of control and the T/C (dose: 7.2 mg/kg/injection, schedule: Q01DX009 (ip), vehicle: Klucel (hydroxypropylcellulose) (HPC)) was 154 % of control. For the same molecule, the T/C (dose: 7.5 mg/kg/injection, schedule: Q01DX005 (ip), vehicle: clinical formulation) was 100 % of control, the T/C (dose: 7.5 mg/kg/injection, schedule: Q01DX005 (ip), vehicle: water) was 123 % of control and the T/C (dose: 7.5 mg/kg/injection, schedule: Q01DX005 (iv), vehicle: clinical formulation) was 106 % of control. The T/C (dose: 7.5 mg/kg/injection, schedule: Q01DX005 (iv), vehicle: water) was 117 % of control, the T/C (dose: 7.5 mg/kg/injection, schedule: Q03HX008 (ip), vehicle: water) was 124 % of control and the T/C (dose: 7.5 mg/kg/injection, schedule: Q03HX024 (ip), vehicle: water) was 184 % of control. The T/C (dose: 8.64 mg/kg/injection, schedule: Q01DX009 (ip), vehicle: Klucel (hydroxypropylcellulose) (HPC)) was 157 % of control, the T/C (dose: 10.0 mg/kg/injection, schedule: Q01DX005 (ip), vehicle: Klucel (hydroxypropylcellulose) (HPC)) was 171 % of control and the T/C (dose: 10.0 mg/kg/injection, schedule: Q01DX009 (ip), vehicle: sodium bicarbonate) was 171 % of control and 174 % of control. For the same molecule, the T/C (dose: 10.1 mg/kg/injection, schedule: Q01DX005 (iv), vehicle: water) was 106 % of control, the T/C (dose: 12.0 mg/kg/injection, schedule: Q01DX009 (ip), vehicle: Klucel (hydroxypropylcellulose) (HPC)) was 173 % of control and the T/C (dose: 12.0 mg/kg/injection, schedule: Q03HX006 (ip), vehicle: Klucel (hydroxypropylcellulose) (HPC)) was 150 % of control. For the same molecule, the T/C (dose: 12.5 mg/kg/injection, schedule: Q01DX009 (ip), vehicle: Klucel (hydroxypropylcellulose) (HPC)) was 172 % of control, the T/C (dose: 12.5 mg/kg/injection, schedule: Q01DX009 (ip), vehicle: clinical formulation) was 111 % of control and the T/C (dose: 12.5 mg/kg/injection, schedule: Q01DX009 (oral), vehicle: sodium bicarbonate) was 110 % of control and 111 % of control. For the same molecule, the T/C (dose: 12.5 mg/kg/injection, schedule: Q04DX003 (ip), vehicle: Klucel (hydroxypropylcellulose) (HPC)) was 180 % of control, the T/C (dose: 13.0 mg/kg/injection, schedule: Q04DX002 (ip), vehicle: Klucel (hydroxypropylcellulose) (HPC)) was 120 % of control and the T/C (dose: 14.4 mg/kg/injection, schedule: Q01DX009 (ip), vehicle: Klucel (hydroxypropylcellulose) (HPC)) was 175 % of control. For the same molecule, the T/C (dose: 15.0 mg/kg/injection, schedule: Q01DX005 (ip), vehicle: Klucel (hydroxypropylcellulose) (HPC)) was 152 % of control, the T/C (dose: 15.0 mg/kg/injection, schedule: Q01DX005 (ip), vehicle: clinical formulation) was 103 % of control and the T/C (dose: 15.0 mg/kg/injection, schedule: Q01DX005 (iv), vehicle: clinical formulation) was 102 % of control. For the same molecule, the T/C (dose: 15.0 mg/kg/injection, schedule: Q01DX005 (oral), vehicle: water) was 112 % of control, the T/C (dose: 15.0 mg/kg/injection, schedule: Q01DX009 (ip), vehicle: water) was 153 % of control and the T/C (dose: 16.8 mg/kg/injection, schedule: Q01DX009 (ip), vehicle: water) was 170 % of control. The T/C (dose: 20.0 mg/kg/injection, schedule: Q01DX005 (ip), vehicle: Klucel (hydroxypropylcellulose) (HPC)) was 202 % of control, the T/C (dose: 20.0 mg/kg/injection, schedule: Q01DX009 (ip), vehicle: Klucel (hydroxypropylcellulose) (HPC)) was 207 % of control and the T/C (dose: 20.0 mg/kg/injection, schedule: Q01DX009 (ip), vehicle: sodium bicarbonate) was 174 % of control and 222 % of control. The T/C (dose: 20.0 mg/kg/injection, schedule: Q03HX006 (ip), vehicle: Klucel (hydroxypropylcellulose) (HPC)) was 154 % of control, the T/C (dose: 20.1 mg/kg/injection, schedule: Q01DX005 (iv), vehicle: water) was 120 % of control and the T/C (dose: 21.6 mg/kg/injection, schedule: Q01DX005 (ip), vehicle: Klucel (hydroxypropylcellulose) (HPC)) was 152 % of control. The T/C (dose: 24.0 mg/kg/injection, schedule: Q01DX009 (ip), vehicle: Klucel (hydroxypropylcellulose) (HPC)) was 181 % of control, the T/C (dose: 25.0 mg/kg/injection, schedule: Q01DX009 (ip), vehicle: Klucel (hydroxypropylcellulose) (HPC)) was 200 % of control and the T/C (dose: 25.0 mg/kg/injection, schedule: Q01DX009 (ip), vehicle: clinical formulation) was 109 % of control. The T/C (dose: 25.0 mg/kg/injection, schedule: Q01DX009 (oral), vehicle: sodium bicarbonate) was 112 % of control, the T/C (dose: 25.0 mg/kg/injection, schedule: Q04DX003 (ip), vehicle: Klucel (hydroxypropylcellulose) (HPC)) was 192 % of control and the T/C (dose: 30.0 mg/kg/injection, schedule: Q01DX001 (ip), vehicle: water) was 108 % of control. The T/C (dose: 30.0 mg/kg/injection, schedule: Q01DX001 (iv), vehicle: water) was 111 % of control, the T/C (dose: 30.0 mg/kg/injection, schedule: Q01DX005 (ip), vehicle: Klucel (hydroxypropylcellulose) (HPC)) was 189 % of control and the T/C (dose: 30.0 mg/kg/injection, schedule: Q01DX005 (ip), vehicle: clinical formulation) was 100 % of control. For the same molecule, the T/C (dose: 30.0 mg/kg/injection, schedule: Q01DX005 (iv), vehicle: clinical formulation) was 105 % of control, the T/C (dose: 30.0 mg/kg/injection, schedule: Q01DX009 (ip), vehicle: water) was 170 % of control and the T/C (dose: 30.0 mg/kg/injection, schedule: Q01DX009 (oral), vehicle: water) was 161 % of control. The T/C (dose: 30.0 mg/kg/injection, schedule: Q04DX003 (ip), vehicle: water) was 123 % of control, the T/C (dose: 33.3 mg/kg/injection, schedule: Q01DX009 (ip), vehicle: Klucel (hydroxypropylcellulose) (HPC)) was 218 % of control and the T/C (dose: 33.3 mg/kg/injection, schedule: Q03HX006 (ip), vehicle: Klucel (hydroxypropylcellulose) (HPC)) was 159 % of control. For the same molecule, the T/C (dose: 33.6 mg/kg/injection, schedule: Q01DX009 (ip), vehicle: water) was 175 % of control, the T/C (dose: 36.0 mg/kg/injection, schedule: Q01DX005 (ip), vehicle: Klucel (hydroxypropylcellulose) (HPC)) was 195 % of control and the T/C (dose: 40.0 mg/kg/injection, schedule: Q01DX005 (ip), vehicle: Klucel (hydroxypropylcellulose) (HPC)) was 240 % of control. For the same molecule, the T/C (dose: 40.0 mg/kg/injection, schedule: Q01DX009 (ip), vehicle: Klucel (hydroxypropylcellulose) (HPC)) was 102 % of control, the T/C (dose: 40.0 mg/kg/injection, schedule: Q01DX009 (ip), vehicle: sodium bicarbonate) was 242 % of control and 91 % of control and the T/C (dose: 50.0 mg/kg/injection, schedule: Q01DX009 (ip), vehicle: Klucel (hydroxypropylcellulose) (HPC)) was 225 % of control. For the same molecule, the T/C (dose: 50.0 mg/kg/injection, schedule: Q01DX009 (ip), vehicle: clinical formulation) was 118 % of control, the T/C (dose: 50.0 mg/kg/injection, schedule: Q01DX009 (oral), vehicle: sodium bicarbonate) was 191 % of control and the T/C (dose: 50.0 mg/kg/injection, schedule: Q04DX003 (ip), vehicle: Klucel (hydroxypropylcellulose) (HPC)) was 201 % of control. The T/C (dose: 60.0 mg/kg/injection, schedule: Q01DX001 (ip), vehicle: water) was 104 % of control, the T/C (dose: 60.0 mg/kg/injection, schedule: Q01DX001 (iv), vehicle: water) was 113 % of control and the T/C (dose: 60.0 mg/kg/injection, schedule: Q01DX001 (oral), vehicle: water) was 120 % of control. The T/C (dose: 60.0 mg/kg/injection, schedule: Q01DX005 (ip), vehicle: Klucel (hydroxypropylcellulose) (HPC)) was 176 % of control and 198 % of control, the T/C (dose: 60.0 mg/kg/injection, schedule: Q01DX005 (ip), vehicle: clinical formulation) was 100 % of control and the T/C (dose: 60.0 mg/kg/injection, schedule: Q01DX005 (oral), vehicle: water) was 153 % of control. For the same molecule, the T/C (dose: 60.0 mg/kg/injection, schedule: Q01DX009 (ip), vehicle: water) was 170 % of control, the T/C (dose: 60.0 mg/kg/injection, schedule: Q03HX008 (ip), vehicle: water) was 120 % of control and the T/C (dose: 60.0 mg/kg/injection, schedule: Q03HX024 (ip), vehicle: water) was 115 % of control. For the same molecule, the T/C (dose: 60.0 mg/kg/injection, schedule: Q04DX002 (ip), vehicle: Klucel (hydroxypropylcellulose) (HPC)) was 151 % of control, the T/C (dose: 60.0 mg/kg/injection, schedule: Q04DX003 (ip), vehicle: water) was 115 % of control and the T/C (dose: 80.0 mg/kg/injection, schedule: Q01DX005 (ip), vehicle: Klucel (hydroxypropylcellulose) (HPC)) was 96 % of control. For the same molecule, the T/C (dose: 100.0 mg/kg/injection, schedule: Q01DX005 (ip), vehicle: Klucel (hydroxypropylcellulose) (HPC)) was 116 % of control, the T/C (dose: 100.0 mg/kg/injection, schedule: Q01DX009 (oral), vehicle: sodium bicarbonate) was 94 % of control and the T/C (dose: 100.0 mg/kg/injection, schedule: Q04DX002 (ip), vehicle: Klucel (hydroxypropylcellulose) (HPC)) was 211 % of control. The T/C (dose: 100.0 mg/kg/injection, schedule: Q04DX003 (ip), vehicle: Klucel (hydroxypropylcellulose) (HPC)) was 230 % of control, the T/C (dose: 120.0 mg/kg/injection, schedule: Q01DX001 (ip), vehicle: water) was 106 % of control and the T/C (dose: 120.0 mg/kg/injection, schedule: Q01DX001 (oral), vehicle: water) was 115 % of control. The T/C (dose: 120.0 mg/kg/injection, schedule: Q01DX005 (oral), vehicle: water) was 170 % of control, the T/C (dose: 120.0 mg/kg/injection, schedule: Q04DX003 (ip), vehicle: water) was 118 % of control and the T/C (dose: 200.0 mg/kg/injection, schedule: Q04DX003 (ip), vehicle: Klucel (hydroxypropylcellulose) (HPC)) was 103 % of control. The T/C (dose: 240.0 mg/kg/injection, schedule: Q01DX001 (oral), vehicle: water) was 124 % of control and the T/C (dose: 480.0 mg/kg/injection, schedule: Q01DX001 (oral), vehicle: water) was 157 % of control.
